In PMC10218303, “Novel Polymyxin-Inspired Peptidomimetics Targeting the SARS-CoV-2 Spike:hACE2 Interface” (International Journal of Molecular Sciences, 2023):
pIC50: −log10 of the molar value. Read-outs that look alike come from different tables or passages of the source. Bridge positions count the residues as written; N and C are the ends. Square brackets hold non-standard residues; d marks the D form. Peptide text beside a SMILES is read from it. Dab = NCC[C@H](N)C(=O)O

Key:
[1] = amide bond, 23-membered ring
in vitro [2] = details: human
[3] = system: SARS-CoV-2 (strain Delta); assay: microbe, parasite or virus in culture; details: Severe acute respiratory syndrome coronavirus 2, 120 h, read-out: IC50 Delta
in vitro [4] = details: human; remark: listed apart in the source
[5] = system: SARS-CoV-2 (strain Delta); details: for pIC50: strain Delta, 2 h
[6] = system: SARS-CoV-2 (strain 20A.EU2); details: strain 20A.EU2, 2 h
[7] = the molecule shown is the open-chain precursor

| Compound | CC50 (in vitro [2]) [µM] | CC50 (in vitro [4]) [µM] | pIC50 [5] | pIC50 [6] | further results |
| --- | --- | --- | --- | --- | --- |
| CC(C)C[C@@H]1NC(=O)[C@@H](Cc2ccccc2)NC(=O)[C@H](Cc2ccc(OC(C)(C)C)cc2)NC(=O)[C@@H](NC(=O)[C@H](CCNC(=O)OC(C)(C)C)NC(=O)OCC2c3ccccc3-c3ccccc32)CCNC(=O)[C@H]([C@@H](C)OC(C)(C)C)NC(=O)[C@H](CCNC(=O)OC(C)(C)C)NC(=O)[C@H](Cc2cn(C(=O)OC(C)(C)C)c3ccccc23)NC1=O |  |  |  |  | ring closure, isolated yield ([1]; from Fmoc-Dab(Boc)-Dab-Tyr(tBu)-dPhe-Leu-Trp(Boc)-Dab(Boc)-Thr(tBu)-OH?, HATU/HOAt/2,4,6-collidine, DCM/DMF, 0.71 mM): 87% |
| CC(C)C[C@@H]1NC(=O)[C@@H](Cc2ccccc2)NC(=O)[C@H](Cc2ccc(OC(C)(C)C)cc2)NC(=O)[C@@H](NC(=O)[C@H](CCOC(c2ccccc2)(c2ccccc2)c2ccccc2)NC(=O)OCC2c3ccccc3-c3ccccc32)CCNC(=O)[C@H]([C@@H](C)OC(C)(C)C)NC(=O)[C@H](CCNC(=O)OC(C)(C)C)NC(=O)[C@H](Cc2cn(C(=O)OC(C)(C)C)c3ccccc23)NC1=O |  |  |  |  | ring closure, isolated yield ([1]; from Fmoc-Hse(Trt)-Dab-Tyr(tBu)-dPhe-Leu-Trp(Boc)-Dab(Boc)-Thr(tBu)-OH?, HATU/HOAt/2,4,6-collidine, DCM/DMF, 0.7 mM): 70% |
| CC(C)C[C@@H]1NC(=O)[C@@H](Cc2ccccc2)NC(=O)[C@H](Cc2ccc(OC(C)(C)C)cc2)NC(=O)[C@@H](NC(=O)[C@H](CCOC(c2ccccc2)(c2ccccc2)c2ccccc2)NC(=O)OCC2c3ccccc3-c3ccccc32)CCNC(=O)[C@H]([C@@H](C)OC(C)(C)C)NC(=O)[C@H](CCOC(c2ccccc2)(c2ccccc2)c2ccccc2)NC(=O)[C@H](Cc2cn(C(=O)OC(C)(C)C)c3ccccc23)NC1=O |  |  |  |  | ring closure, isolated yield ([1]; from Fmoc-Hse(Trt)-Dab-Tyr(tBu)-dPhe-Leu-Trp(Boc)-Hse(Trt)-Thr(tBu)-OH?, HATU/HOAt/2,4,6-collidine, DCM/DMF, 0.7 mM): 63% |
| CC(C)C[C@@H]1NC(=O)[C@@H](Cc2ccccc2)NC(=O)[C@H](Cc2cn(C(=O)OC(C)(C)C)c3ccccc23)NC(=O)[C@@H](NC(=O)[C@H](CCNC(=O)OC(C)(C)C)NC(=O)OCC2c3ccccc3-c3ccccc32)CCNC(=O)[C@H]([C@@H](C)OC(C)(C)C)NC(=O)[C@H](CCNC(=O)OC(C)(C)C)NC(=O)[C@H](Cc2cn(C(=O)OC(C)(C)C)c3ccccc23)NC1=O |  |  |  |  | ring closure, isolated yield ([1]; from Fmoc-Dab(Boc)-Dab-Trp(Boc)-dPhe-Leu-Trp(Boc)-Dab(Boc)-Thr(tBu)-OH?, HATU/HOAt/2,4,6-collidine, DCM/DMF, 0.7 mM): 70% |
| CC(C)C[C@H](NC(=O)OCC1c2ccccc2-c2ccccc21)C(=O)N[C@H]1CCNC(=O)[C@H]([C@@H](C)OC(C)(C)C)NC(=O)[C@H](CCNC(=O)OC(C)(C)C)NC(=O)[C@H](CCNC(=O)OC(C)(C)C)NC(=O)[C@H](CC(C)C)NC(=O)[C@@H](Cc2ccccc2)NC(=O)[C@H](Cc2cn(C(=O)OC(C)(C)C)c3ccccc23)NC1=O |  |  |  |  | ring closure, isolated yield ([1]; from Fmoc-Leu-Dab-Trp(Boc)-dPhe-Leu-Dab(Boc)-Dab(Boc)-Thr(tBu)-OH?, HATU/HOAt/2,4,6-collidine, DCM/DMF, 0.7 mM): 78% |
| CC[C@H](C)[C@@H]1NC(=O)[C@@H](NC(=O)[C@H](CCNC(=O)OC(C)(C)C)NC(=O)[C@@H](NC(=O)[C@H](CC(C)C)NC(C)=O)[C@@H](C)OC(C)(C)C)CCNC(=O)[C@H](CN=[N+]=[N-])NC(=O)[C@H](CCNC(=O)OC(C)(C)C)NC(=O)[C@H](CCNC(=O)OC(C)(C)C)NC(=O)[C@H](Cc2ccc(OC(C)(C)C)cc2)NC(=O)[C@@H](Cc2ccccc2)NC1=O |  |  |  |  | ring closure, isolated yield ([1]; from Ac-Leu-Thr(tBu)-Dab(Boc)-Dab(H-azidoAla)-Ile-dPhe-Tyr(tBu)-Dab(Boc)-Dab(Boc)-OH, HATU/HOAt/2,4,6-collidine, DCM/DMF 14:1, 0.7 mM): 74% |
| N#C[C@@]1(c2ccc3c(N)ncnn23)O[C@H](CO)[C@@H](O)[C@H]1O [GS-441524, reference compound] | > 40 |  |  |  | pIC50 [3]: 5.64 |
| CC[C@H](C)[C@@H]1NC(=O)[C@@H](NC(=O)[C@H](CCN)NC(=O)[C@@H](NC(=O)[C@H](CC(C)C)NC(C)=O)[C@@H](C)O)CCNC(=O)[C@H](Cn2cc(CC(=O)N[C@@H](CCN)C(=O)N[C@H]3CCNC(=O)[C@H]([C@@H](C)O)NC(=O)[C@H](CCN)NC(=O)[C@H](Cc4c[nH]c5ccccc45)NC(=O)[C@H](CC(C)C)NC(=O)[C@@H](Cc4ccccc4)NC(=O)[C@H](Cc4ccc(O)cc4)NC3=O)nn2)NC(=O)[C@H](CCN)NC(=O)[C@H](CCN)NC(=O)[C@H](Cc2ccc(O)cc2)NC(=O)[C@@H](Cc2ccccc2)NC1=O [dimer 3] | > 50 | > 50 | < 4.30 | < 4.30 |  |
| CC[C@H](C)[C@@H]1NC(=O)[C@@H](NC(=O)[C@H](CCN)NC(=O)[C@@H](NC(=O)[C@H](CC(C)C)NC(C)=O)[C@@H](C)O)CCNC(=O)[C@H](Cn2cc(CCC(=O)N[C@@H](CCN)C(=O)N[C@H]3CCNC(=O)[C@H]([C@@H](C)O)NC(=O)[C@H](CCN)NC(=O)[C@H](Cc4c[nH]c5ccccc45)NC(=O)[C@H](CC(C)C)NC(=O)[C@@H](Cc4ccccc4)NC(=O)[C@H](Cc4ccc(O)cc4)NC3=O)nn2)NC(=O)[C@H](CCN)NC(=O)[C@H](CCN)NC(=O)[C@H](Cc2ccc(O)cc2)NC(=O)[C@@H](Cc2ccccc2)NC1=O [dimer 4] | > 50 | > 50 | < 4.30 | < 4.30 |  |
| CC(=O)N[C@@H](CCC(=O)O)C(=O)N[C@H](C(=O)N[C@@H](CCN)C(=O)N[C@H]1CCNC(=O)[C@H](Cn2cc(CC(=O)N[C@@H](CC(C)C)C(=O)N[C@H]3CCNC(=O)[C@H]([C@@H](C)O)NC(=O)[C@H](CCN)NC(=O)[C@H](CCN)NC(=O)[C@H](CC(C)C)NC(=O)[C@@H](Cc4ccccc4)NC(=O)[C@H](Cc4c[nH]c5ccccc45)NC3=O)nn2)NC(=O)[C@H](CCN)NC(=O)[C@H](CCN)NC(=O)[C@H](Cc2ccc(O)cc2)NC(=O)[C@@H](Cc2ccccc2)NC(=O)[C@H](Cc2ccc(O)cc2)NC1=O)[C@@H](C)O [dimer 7] | > 50 | > 50 | < 4.30 | < 4.30 | antiviral effect, in words [5]: a hint of antiviral effect |
| CC(=O)N[C@@H](CCC(=O)O)C(=O)N[C@H](C(=O)N[C@@H](CCN)C(=O)N[C@H]1CCNC(=O)[C@H](Cn2cc(CC(=O)N[C@@H](CCN)C(=O)N[C@H]3CCNC(=O)[C@H]([C@@H](C)O)NC(=O)[C@H](CCN)NC(=O)[C@H](Cc4c[nH]c5ccccc45)NC(=O)[C@H](CC(C)C)NC(=O)[C@@H](Cc4ccccc4)NC(=O)[C@H](Cc4c[nH]c5ccccc45)NC3=O)nn2)NC(=O)[C@H](CCN)NC(=O)[C@H](CCN)NC(=O)[C@H](CC(C)C)NC(=O)[C@@H](Cc2ccccc2)NC(=O)[C@H](Cc2ccc(O)cc2)NC1=O)[C@@H](C)O [dimer 10] | > 50 | > 50 | < 4.30 | < 4.30 |  |
| CC(C)C[C@@H]1NC(=O)[C@@H](Cc2ccccc2)NC(=O)[C@H](Cc2ccc(O)cc2)NC(=O)[C@@H](NC(=O)[C@@H](N)CCN)CCNC(=O)[C@H]([C@@H](C)O)NC(=O)[C@H](CCN)NC(=O)[C@H](Cc2c[nH]c3ccccc23)NC1=O [monomer 1] (H-[Dab][Dab]Y[dF]LW[Dab]T; lactam 2-C) | > 50 | > 50 | < 4.30 | < 4.30 |  |
| CC[C@H](C)[C@@H]1NC(=O)[C@@H](NC(=O)[C@H](CCN)NC(=O)[C@@H](NC(=O)[C@H](CC(C)C)NC(C)=O)[C@@H](C)O)CCNC(=O)[C@H](Cn2cc(CC(=O)O)nn2)NC(=O)[C@H](CCN)NC(=O)[C@H](CCN)NC(=O)[C@H](Cc2ccc(O)cc2)NC(=O)[C@@H](Cc2ccccc2)NC1=O [monomer 2] | > 50 | > 50 | < 4.30 | < 4.30 |  |
| CC(C)C[C@@H]1NC(=O)[C@@H](Cc2ccccc2)NC(=O)[C@H](Cc2c[nH]c3ccccc23)NC(=O)[C@@H](NC(=O)[C@@H](N)CC(C)C)CCNC(=O)[C@H]([C@@H](C)O)NC(=O)[C@H](CCN)NC(=O)[C@H](CCN)NC1=O [monomer 5] (H-L[Dab]W[dF]L[Dab][Dab]T; lactam 2-C) | > 50 | > 50 | < 4.30 | < 4.30 |  |
| CC(=O)N[C@@H](CCC(=O)O)C(=O)N[C@H](C(=O)N[C@@H](CCN)C(=O)N[C@H]1CCNC(=O)[C@H](Cn2cc(CC(=O)O)nn2)NC(=O)[C@H](CCN)NC(=O)[C@H](CCN)NC(=O)[C@H](Cc2ccc(O)cc2)NC(=O)[C@@H](Cc2ccccc2)NC(=O)[C@H](Cc2ccc(O)cc2)NC1=O)[C@@H](C)O [monomer 6] | > 50 | > 50 | < 4.30 | < 4.30 |  |
| CC(C)C[C@@H]1NC(=O)[C@@H](Cc2ccccc2)NC(=O)[C@H](Cc2c[nH]c3ccccc23)NC(=O)[C@@H](NC(=O)[C@@H](N)CCN)CCNC(=O)[C@H]([C@@H](C)O)NC(=O)[C@H](CCN)NC(=O)[C@H](Cc2c[nH]c3ccccc23)NC1=O [monomer 8] (H-[Dab][Dab]W[dF]LW[Dab]T; lactam 2-C) | > 50 | > 50 | < 4.30 | < 4.30 | antiviral effect, in words [5]: a hint of antiviral effect |
| CC(=O)N[C@@H](CCC(=O)O)C(=O)N[C@H](C(=O)N[C@@H](CCN)C(=O)N[C@H]1CCNC(=O)[C@H](Cn2cc(CC(=O)O)nn2)NC(=O)[C@H](CCN)NC(=O)[C@H](CCN)NC(=O)[C@H](CC(C)C)NC(=O)[C@@H](Cc2ccccc2)NC(=O)[C@H](Cc2ccc(O)cc2)NC1=O)[C@@H](C)O [monomer 9] | > 50 | > 50 | < 4.30 | < 4.30 |  |
| Ac-Glu(tBu)-Thr(tBu)-Dab(Boc)-Dab(H-Ala(N3))-Tyr(tBu)-dPhe-Leu-Dab(Boc)-Dab(Boc)-OH? |  |  |  |  | ring closure, isolated yield [1, 7]: 65% |
| Ac-Glu(tBu)-Thr(tBu)-Dab(Boc)-Dab(H-Ala(N3))-Tyr(tBu)-dPhe-Tyr(tBu)-Dab(Boc)-Dab(Boc)-OH? |  |  |  |  | ring closure, isolated yield [1, 7]: 48% |
| Ac-Leu-Thr(tBu)-Dab(Boc)-Dab(H-Ala(N3))-Ile-dPhe-Tyr(tBu)-Dab(Boc)-Dab(Boc)-OH? |  |  |  |  | ring closure, isolated yield [1, 7]: 74% |
| Ac-Leu-Thr(tBu)-Dab(Boc)-Dab(H-Ala(N3))-Ile-dPhe-Tyr(tBu)-Hse(Trt)-Hse(Trt)-OH? |  |  |  |  | ring closure, isolated yield [1, 7]: 90% |
